Measured values published in ChEMBL document CHEMBL3880411, “Multikinase inhibitors for use in the treatment of cancer” (2009).
Calls of active or inactive are those of the source. The calls are words filed in the database; no cut-off is given here.

Tests used:
[1] = target: Tyrosine-protein kinase ABL1 (Homo sapiens) (UniProt P00519); assay: Inhibition of human Abl assessed as remaining activity at 0.1 uM after 40 mins in presence of [gamma33P-ATP] by scintillation counting
[2] = target: Proto-oncogene tyrosine-protein kinase Src (Homo sapiens) (UniProt P12931); assay: Inhibition of human c-Src assessed as remaining activity at 0.1 uM after 40 mins in presence of [gamma33P-ATP] by scintillation counting
Chain of Proto-oncogene tyrosine-protein kinase Src (Homo sapiens) (P12931 2-536 limits assumed): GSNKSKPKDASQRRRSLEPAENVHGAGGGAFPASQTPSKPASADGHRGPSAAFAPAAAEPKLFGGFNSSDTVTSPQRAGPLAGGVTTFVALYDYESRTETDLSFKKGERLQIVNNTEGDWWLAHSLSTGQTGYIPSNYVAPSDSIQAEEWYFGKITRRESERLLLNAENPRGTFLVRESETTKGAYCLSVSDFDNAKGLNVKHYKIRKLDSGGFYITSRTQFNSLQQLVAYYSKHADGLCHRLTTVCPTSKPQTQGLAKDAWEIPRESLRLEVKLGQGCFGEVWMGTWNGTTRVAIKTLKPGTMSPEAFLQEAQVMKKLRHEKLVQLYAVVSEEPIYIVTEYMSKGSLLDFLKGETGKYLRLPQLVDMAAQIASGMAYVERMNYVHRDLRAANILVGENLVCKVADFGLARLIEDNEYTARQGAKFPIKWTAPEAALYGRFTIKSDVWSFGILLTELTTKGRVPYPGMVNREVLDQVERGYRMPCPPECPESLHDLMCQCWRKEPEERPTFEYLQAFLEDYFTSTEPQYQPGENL

[3] = target: Proto-oncogene tyrosine-protein kinase Src (Homo sapiens) (UniProt P12931); assay: Inhibition of human c-Src assessed as remaining activity at 1 uM after 40 mins in presence of [gamma33P-ATP] by scintillation counting
[4] = target: Receptor-type tyrosine-protein kinase FLT3 (Homo sapiens) (UniProt P36888); assay: Inhibition of human Flt3 assessed as remaining activity at 0.1 uM after 40 mins in presence of [gamma33P-ATP] by scintillation counting
Chain of Receptor-type tyrosine-protein kinase FLT3 (Homo sapiens) (P36888 whole entry): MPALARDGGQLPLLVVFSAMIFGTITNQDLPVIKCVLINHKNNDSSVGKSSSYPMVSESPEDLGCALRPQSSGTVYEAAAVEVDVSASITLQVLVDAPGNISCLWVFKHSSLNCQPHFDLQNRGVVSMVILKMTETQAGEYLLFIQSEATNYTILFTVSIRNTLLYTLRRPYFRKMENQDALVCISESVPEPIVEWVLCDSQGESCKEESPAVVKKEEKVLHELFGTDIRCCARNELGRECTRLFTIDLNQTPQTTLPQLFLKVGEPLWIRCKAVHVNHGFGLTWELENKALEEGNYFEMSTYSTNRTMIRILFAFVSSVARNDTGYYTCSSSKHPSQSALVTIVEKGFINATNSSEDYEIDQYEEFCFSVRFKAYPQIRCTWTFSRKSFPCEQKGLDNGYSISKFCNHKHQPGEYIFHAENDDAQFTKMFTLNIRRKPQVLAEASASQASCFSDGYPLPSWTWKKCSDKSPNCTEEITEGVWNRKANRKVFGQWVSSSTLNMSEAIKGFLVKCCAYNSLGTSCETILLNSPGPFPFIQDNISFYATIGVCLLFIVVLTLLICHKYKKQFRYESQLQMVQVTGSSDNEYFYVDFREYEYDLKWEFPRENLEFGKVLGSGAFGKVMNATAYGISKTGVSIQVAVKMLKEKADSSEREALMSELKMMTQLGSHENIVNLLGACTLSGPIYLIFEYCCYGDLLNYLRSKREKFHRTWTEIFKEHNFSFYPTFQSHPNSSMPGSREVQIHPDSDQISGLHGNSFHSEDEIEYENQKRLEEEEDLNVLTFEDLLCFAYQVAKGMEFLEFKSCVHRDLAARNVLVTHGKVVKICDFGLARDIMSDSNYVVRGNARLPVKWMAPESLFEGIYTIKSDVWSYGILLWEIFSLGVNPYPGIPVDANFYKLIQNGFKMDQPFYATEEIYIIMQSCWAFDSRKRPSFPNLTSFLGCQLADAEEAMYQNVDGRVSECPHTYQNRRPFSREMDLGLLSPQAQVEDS

[5] = target: Receptor-type tyrosine-protein kinase FLT3 (Homo sapiens) (UniProt P36888); assay: Inhibition of human Flt3 assessed as remaining activity at 1 uM after 40 mins in presence of [gamma33P-ATP] by scintillation counting
[6] = target: Tyrosine-protein kinase Fyn (Homo sapiens) (UniProt P06241); assay: Inhibition of human Fyn assessed as remaining activity at 0.1 uM after 40 mins in presence of [gamma33P-ATP] by scintillation counting
Chain of Tyrosine-protein kinase Fyn (Homo sapiens) (P06241 2-537 limits assumed): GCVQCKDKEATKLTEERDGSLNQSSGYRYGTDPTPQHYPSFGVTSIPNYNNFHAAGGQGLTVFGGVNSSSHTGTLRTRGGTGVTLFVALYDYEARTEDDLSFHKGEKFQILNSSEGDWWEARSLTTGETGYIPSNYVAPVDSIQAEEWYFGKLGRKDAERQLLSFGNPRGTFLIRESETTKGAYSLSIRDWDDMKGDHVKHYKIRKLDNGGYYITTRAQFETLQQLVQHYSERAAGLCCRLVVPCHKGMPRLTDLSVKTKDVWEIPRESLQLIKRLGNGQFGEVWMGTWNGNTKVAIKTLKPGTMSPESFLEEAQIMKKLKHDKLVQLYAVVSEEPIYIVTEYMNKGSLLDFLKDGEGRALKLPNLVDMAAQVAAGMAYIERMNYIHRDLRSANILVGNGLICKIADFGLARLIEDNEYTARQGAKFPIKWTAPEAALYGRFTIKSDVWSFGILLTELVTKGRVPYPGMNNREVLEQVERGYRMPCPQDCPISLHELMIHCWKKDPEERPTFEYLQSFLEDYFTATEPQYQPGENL

[7] = target: Tyrosine-protein kinase Fyn (Homo sapiens) (UniProt P06241); assay: Inhibition of human Fyn assessed as remaining activity at 1 uM after 40 mins in presence of [gamma33P-ATP] by scintillation counting
[8] = target: Tyrosine-protein kinase Lck (Homo sapiens) (UniProt P06239); assay: Inhibition of human Lck assessed as remaining activity at 1 uM after 40 mins in presence of [gamma33P-ATP] by scintillation counting
[9] = target: Tyrosine-protein kinase Lyn (Homo sapiens) (UniProt P07948); assay: Inhibition of human Lyn assessed as remaining activity at 0.1 uM after 40 mins in presence of [gamma33P-ATP] by scintillation counting
Chain of Tyrosine-protein kinase Lyn (Homo sapiens) (P07948 2-512 limits assumed): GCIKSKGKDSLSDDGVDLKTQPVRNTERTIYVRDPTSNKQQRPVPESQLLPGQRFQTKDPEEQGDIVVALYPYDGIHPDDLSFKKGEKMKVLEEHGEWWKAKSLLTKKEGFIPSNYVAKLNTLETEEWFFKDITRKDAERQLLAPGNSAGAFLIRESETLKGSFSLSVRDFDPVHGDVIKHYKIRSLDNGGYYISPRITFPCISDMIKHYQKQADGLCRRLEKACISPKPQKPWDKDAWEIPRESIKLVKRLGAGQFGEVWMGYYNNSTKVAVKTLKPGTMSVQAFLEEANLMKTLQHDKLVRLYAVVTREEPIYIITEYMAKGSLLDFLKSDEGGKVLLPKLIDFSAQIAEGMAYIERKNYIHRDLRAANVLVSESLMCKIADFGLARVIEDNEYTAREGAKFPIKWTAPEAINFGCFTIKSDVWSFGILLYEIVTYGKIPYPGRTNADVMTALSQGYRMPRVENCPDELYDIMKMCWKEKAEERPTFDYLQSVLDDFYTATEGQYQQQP

[10] = target: BDNF/NT-3 growth factors receptor (Homo sapiens) (UniProt Q16620); assay: Inhibition of human TrkB assessed as remaining activity at 0.1 uM after 40 mins in presence of [gamma33P-ATP] by scintillation counting
Chain of BDNF/NT-3 growth factors receptor (Homo sapiens) (Q16620 32-822 limits assumed): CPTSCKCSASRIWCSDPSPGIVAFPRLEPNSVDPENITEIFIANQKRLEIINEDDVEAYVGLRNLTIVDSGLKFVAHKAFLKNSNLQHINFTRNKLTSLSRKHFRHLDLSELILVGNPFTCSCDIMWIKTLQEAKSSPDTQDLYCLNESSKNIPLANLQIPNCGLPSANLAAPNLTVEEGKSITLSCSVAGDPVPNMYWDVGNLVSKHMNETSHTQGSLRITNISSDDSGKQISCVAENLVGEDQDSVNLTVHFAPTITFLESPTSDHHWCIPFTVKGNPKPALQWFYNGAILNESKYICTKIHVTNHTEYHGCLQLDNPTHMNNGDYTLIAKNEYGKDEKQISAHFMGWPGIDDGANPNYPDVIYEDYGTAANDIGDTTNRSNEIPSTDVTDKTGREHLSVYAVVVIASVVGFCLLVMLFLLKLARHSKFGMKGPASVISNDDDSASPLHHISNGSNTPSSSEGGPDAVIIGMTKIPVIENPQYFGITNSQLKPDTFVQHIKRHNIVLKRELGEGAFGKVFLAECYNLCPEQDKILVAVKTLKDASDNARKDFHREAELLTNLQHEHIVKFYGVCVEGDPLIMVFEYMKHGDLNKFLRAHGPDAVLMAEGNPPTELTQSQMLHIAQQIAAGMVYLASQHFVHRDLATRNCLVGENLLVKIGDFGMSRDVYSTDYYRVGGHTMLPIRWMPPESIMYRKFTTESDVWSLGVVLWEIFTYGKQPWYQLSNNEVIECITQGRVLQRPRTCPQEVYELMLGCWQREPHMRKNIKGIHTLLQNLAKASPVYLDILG

[11] = target: BDNF/NT-3 growth factors receptor (Homo sapiens) (UniProt Q16620); assay: Inhibition of human TrkB assessed as remaining activity at 1 uM after 40 mins in presence of [gamma33P-ATP] by scintillation counting
[12] = target: Tyrosine-protein kinase Yes (Homo sapiens) (UniProt P07947); assay: Inhibition of human Yes assessed as remaining activity at 0.1 uM after 40 mins in presence of [gamma33P-ATP] by scintillation counting
Chain of Tyrosine-protein kinase Yes (Homo sapiens) (P07947 2-543 limits assumed): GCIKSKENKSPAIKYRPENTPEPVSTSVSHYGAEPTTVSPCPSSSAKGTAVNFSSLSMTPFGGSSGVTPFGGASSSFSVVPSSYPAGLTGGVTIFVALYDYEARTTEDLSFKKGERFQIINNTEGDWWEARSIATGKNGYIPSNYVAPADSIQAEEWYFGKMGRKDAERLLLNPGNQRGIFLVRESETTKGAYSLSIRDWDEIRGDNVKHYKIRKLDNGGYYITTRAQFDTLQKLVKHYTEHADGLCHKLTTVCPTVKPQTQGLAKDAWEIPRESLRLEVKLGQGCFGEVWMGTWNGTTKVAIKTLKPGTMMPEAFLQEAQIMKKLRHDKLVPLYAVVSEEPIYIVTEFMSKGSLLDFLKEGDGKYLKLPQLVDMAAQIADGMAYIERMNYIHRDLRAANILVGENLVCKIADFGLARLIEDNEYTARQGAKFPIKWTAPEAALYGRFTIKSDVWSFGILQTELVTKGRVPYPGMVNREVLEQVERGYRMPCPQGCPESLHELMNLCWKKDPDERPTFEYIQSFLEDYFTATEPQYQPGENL

[13] = target: Tyrosine-protein kinase Yes (Homo sapiens) (UniProt P07947); assay: Inhibition of human Yes assessed as remaining activity at 1 uM after 40 mins in presence of [gamma33P-ATP] by scintillation counting
[14] = Cytotoxicity against human MCF7 cells assessed as reduction in cell viability after 96 hrs by CellTiter-Glo luminescence assay or methylene blue assay; assay type: functional, cell-based; conditions: MCF7, 96 h
[15] = Cytotoxicity against human MDA-MB-231 cells expressing K-ras G13D mutant assessed as reduction in cell viability after 96 hrs by CellTiter-Glo luminescence assay or methylene blue assay; assay type: functional, cell-based; conditions: MDA-MB-231, 96 h
[16] = Cytotoxicity against human MDA-MB-435 cells expressing B-RAF V600E mutant assessed as reduction in cell viability after 96 hrs by CellTiter-Glo luminescence assay or methylene blue assay; assay type: functional, cell-based; conditions: MDA-MB-435, 96 h
[17] = Cytotoxicity against human DU4475 cells expressing B-RAF V600E mutant assessed as reduction in cell viability after 96 hrs by CellTiter-Glo luminescence assay or methylene blue assay; assay type: functional, cell-based; conditions: DU-4475, 96 h
[18] = Cytotoxicity against human SK-MEL-2 cells expressing N-ras Q61R mutant assessed as reduction in cell viability after 96 hrs by CellTiter-Glo luminescence assay or methylene blue assay; assay type: functional, cell-based; conditions: SK-MEL-2, 96 h
[19] = Cytotoxicity against human SK-MEL-3 cells expressing B-RAF V600E mutant assessed as reduction in cell viability after 96 hrs by CellTiter-Glo luminescence assay or methylene blue assay; assay type: functional, cell-based; conditions: SK-MEL3, 96 h
[20] = Cytotoxicity against human SK-MEL-31 cells expressing B-RAF V600E mutant assessed as reduction in cell viability after 96 hrs by CellTiter-Glo luminescence assay or methylene blue assay; assay type: functional, cell-based
[21] = Cytotoxicity against human LoVo cells expressing K-ras G13D mutant assessed as reduction in cell viability after 96 hrs by CellTiter-Glo luminescence assay or methylene blue assay; assay type: functional, cell-based
[22] = Cytotoxicity against human HCT116 cells expressing K-ras G13D mutant assessed as reduction in cell viability after 96 hrs by CellTiter-Glo luminescence assay or methylene blue assay; assay type: functional, cell-based; conditions: HCT-116, 96 h
[23] = Cytotoxicity against human SW620 cells expressing K-ras G12V mutant assessed as reduction in cell viability after 96 hrs by CellTiter-Glo luminescence assay or methylene blue assay; assay type: functional, cell-based; conditions: SW-620, 96 h
[24] = Cytotoxicity against human COLO205 cells expressing B-RAF V600E mutant assessed as reduction in cell viability after 96 hrs by CellTiter-Glo luminescence assay or methylene blue assay; assay type: functional, cell-based; conditions: COLO 205, 96 h
[25] = Cytotoxicity against human HT-29 cells expressing B-RAF V600E mutant assessed as reduction in cell viability after 96 hrs by CellTiter-Glo luminescence assay or methylene blue assay; assay type: functional, cell-based; conditions: HT-29, 96 h
[26] = Cytotoxicity against human MES-SA cells assessed as reduction in cell viability after 96 hrs by CellTiter-Glo luminescence assay or methylene blue assay; assay type: functional, cell-based
[27] = Cytotoxicity against human MES-SA/Dx5-Rx1 cells assessed as reduction in cell viability after 96 hrs by CellTiter-Glo luminescence assay or methylene blue assay; assay type: functional, cell-based
LOX = assay: Antitumor activity against human LOX cells expressing B-RAF V600E mutant xenografted in athymic mouse assessed as tumor regression at 10 to 40 mg/kg, iv administered for two weekly rounds of five injections daily with two-day rest period between the rounds measured twice weekly from first day of treatment; assay type: functional, organism-based
[28] = Antiproliferative activity against human HL60 cells after 96 hrs by MTT assay; assay type: functional, cell-based; conditions: HL-60, 96 h
[29] = Antiproliferative activity against human K562 cells after 96 hrs by MTT assay; assay type: functional, cell-based; conditions: K562, 96 h
[30] = Antiproliferative activity against human U266 cells after 96 hrs by MTT assay; assay type: functional, cell-based; conditions: U-266, 96 h
[31] = Antiproliferative activity against human RPMI8226 cells after 96 hrs by MTT assay; assay type: functional, cell-based; conditions: RPMI-8226, 96 h
[32] = Antiproliferative activity against human NALM6 cells after 96 hrs by MTT assay; assay type: functional, cell-based; conditions: NALM-6, 96 h
[33] = test system: Receptor-type tyrosine-protein kinase FLT3 (Homo sapiens), P36888 [UNDEFINED MUTATION]; assay: Inhibition of Flt-3 activation mutant phosphorylation in human MV4-11 cells after 24 hrs by Western blot analysis; assay type: cell-based
[34] = Antiproliferative activity against human MV4-11 cells expressing Flt-3 activation mutant after 96 hrs by CellTiter-Glo luminescence assay; assay type: functional, cell-based; conditions: MV4-11, 96 h
[35] = target: Nuclear factor NF-kappa-B complex (Homo sapiens) (UniProt Q00653+P19838+Q04206); assay: Inhibition of NFkappaB (unknown origin); assay type: protein-complex assay

Chain of Tyrosine-protein kinase ABL1 (Homo sapiens) (P00519 whole entry): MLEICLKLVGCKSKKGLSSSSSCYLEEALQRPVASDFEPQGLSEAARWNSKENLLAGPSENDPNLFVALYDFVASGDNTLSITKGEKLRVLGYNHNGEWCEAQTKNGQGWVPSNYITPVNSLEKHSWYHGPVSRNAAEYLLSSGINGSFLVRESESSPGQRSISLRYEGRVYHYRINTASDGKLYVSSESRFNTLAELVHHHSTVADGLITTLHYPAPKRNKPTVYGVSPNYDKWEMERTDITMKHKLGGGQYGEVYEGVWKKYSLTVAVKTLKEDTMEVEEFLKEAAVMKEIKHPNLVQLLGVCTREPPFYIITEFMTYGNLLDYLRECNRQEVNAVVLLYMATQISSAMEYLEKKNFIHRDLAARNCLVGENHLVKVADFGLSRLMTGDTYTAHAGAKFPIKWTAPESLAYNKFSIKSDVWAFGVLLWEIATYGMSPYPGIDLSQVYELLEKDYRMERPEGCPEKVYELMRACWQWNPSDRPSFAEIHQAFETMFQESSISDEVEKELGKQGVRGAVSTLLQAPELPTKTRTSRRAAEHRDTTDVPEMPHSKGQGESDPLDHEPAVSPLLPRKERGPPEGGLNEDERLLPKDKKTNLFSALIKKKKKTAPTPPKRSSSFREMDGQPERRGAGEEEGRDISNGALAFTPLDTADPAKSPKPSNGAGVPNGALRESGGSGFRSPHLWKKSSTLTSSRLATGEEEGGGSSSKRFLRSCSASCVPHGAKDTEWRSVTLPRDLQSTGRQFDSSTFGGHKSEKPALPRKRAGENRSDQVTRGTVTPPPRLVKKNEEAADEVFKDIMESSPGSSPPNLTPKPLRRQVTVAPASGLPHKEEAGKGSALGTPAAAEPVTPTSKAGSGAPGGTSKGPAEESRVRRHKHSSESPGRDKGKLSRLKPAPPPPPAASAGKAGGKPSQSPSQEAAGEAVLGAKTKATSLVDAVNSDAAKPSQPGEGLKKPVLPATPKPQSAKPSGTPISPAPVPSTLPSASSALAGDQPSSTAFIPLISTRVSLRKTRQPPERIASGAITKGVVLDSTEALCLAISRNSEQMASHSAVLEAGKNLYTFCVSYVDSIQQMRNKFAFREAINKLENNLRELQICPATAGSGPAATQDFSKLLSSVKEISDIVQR

CCNc1cc(O)c2c(c1)/C=C/C[C@H](O)[C@H](O)C(=O)/C=C\[C@@H](C)[C@H](C)OC2=O [E-6201]
Activity [1]: 51%
Activity [2]: 31%
Activity [3]: 1%
Activity [4]: 33%
Activity [5]: 6%
Activity [6]: 24%
Activity [7]: 0%
Activity [8]: 0%
Activity [9]: 45%
Activity [10]: 24%
Activity [11]: 4%
Activity [12]: 54%
Activity [13]: 8%
IC50 [14]: > 10000 nM
IC50 [15]: 156 nM
IC50 [16]: 71 nM
IC50 [17]: 52 nM
IC50 [18]: 135 nM
IC50 [19]: 24 nM
IC50 [20]: 225 nM
IC50 [21]: 132 nM
IC50 [22]: 423 nM
IC50 [23]: 282 nM
IC50 [24]: 43 nM
IC50 [25]: 84 nM
IC50 [26]: 7490 nM
IC50 [27]: 1590 nM
Activity (LOX): Active
IC50 [28]: 60 nM
IC50 [29]: 1800 nM
IC50 [30]: 950 nM
IC50 [31]: > 7050 nM
IC50 [32]: 620 nM
inhibition [33]: Dose-dependent effect
IC50 [34]: 8.2 nM
inhibition [35]: Active
